Experiment [1] concerns rePON1. Kind of experiment: rePON1 arylesterase activity (phenyl acetate assay) after incubation with lyso-DGTS. In kind it is biochemical. Conditions: 0-100 μg/ml lyso-DGTS, 2 or 4 h, 37° C. On the procedure: (§1) To 200 μl of rePON1 solution (5 μg/ml) in Tris-HCl buffer pH=8.4 was added 1 μl of lyso-DGTS dissolved in dimethyl sulfoxide (DMSO) to a final concentration of 1, 5, 10, 50, and 100 μg/ml. 1 μl DMSO was added to the control rePON1 solution. The mixtures were incubated at 37° C. for 2, 4, 24 or 48 h.
10 μl from each solution were taken to a UV 96-well microplate wells containing 90 μl Tris-HCL buffer pH=8.4 with 1 mM CaCl2 (activity buffer). Then 100 μl phenyl acetate, 2 mM in the activity buffer was added (prepared from a stock of 100 mM phenyl acetate in DMSO). Phenyl acetate hydrolysis rate was measured at 270 nm, once in 25 seconds, for 15 minutes using SpectraMax M2 Reader. One unit of esterase activity was equal to the hydrolysis of 1 μmol of phenyl acetate/min. Lactonase and esterase unit activity were calculated by the following equation: Unit=slope (mOD/min)×5(per ml)×666.7(dilution)/700. Human Serum PON1 Lactonase Activity
(§2) The effect of lyso-DGTS on lactonase and arylesterase activities of rePON1 was examined. rePON1 (5 μg/ml in Tris buffer pH=8.4) was incubated with different concentrations of lyso-DGTS for 2, 4, 24, and 48 h at 37° C., and its lactonase and aryesterase activities were measured using dihydrocoumarin and phenyl acetate assays, respectively.

The subject of experiment [2] is rePON1. Kind of experiment: rePON1-lyso-DGTS interaction, Trp fluorescence quenching. In kind it is binding. On the procedure: To 200 μl rePON1 (50 μg/ml=1.16 μM) solution in black 96-well plate wells was added lyso-DGTS at various concentration (0, 1, 5, 10, 25, 50, 75, and 100 μg/ml). The solutions were incubated for 2 h at 25° C. or 37° C. Fluorescence measurements were performed with an Infinite M200 PRO fluorescence spectrophotometer (Tecan) with emission spectra recorded from 320 to 450 nm at an excitation wavelength of 290 nm.
The effect of lyso-DGTS on rePON1 can result from a specific interaction between the lipid and the enzyme which was studied using Trp fluorescence quenching method. […] (FIG. 3A) and 37° C. (FIG. 3B) in the 300-450 nm range with an excitation wavelength of 290 nm. Lyso-DGTS quenched the fluorescence of rePON1 in a dose dependent manner at both temperatures.
Quenching pathways can be described by the Stern-Volmer equation (eq. 1):
[formula] where F0 and F are the fluorescence intensities in the absence and presence of quencher (lyso-DGTS), respectively, Ksv is the Stern-Volmer quenching constant, and [Q] is the quencher concentration (M).
The binding constant and binding sites were calculated using (eq. 2):
[formula] where Ka is the binding constant, reflecting the degree of interaction between rePON1 and lyso-DGTS, and n is the number of binding sites specifying the number of lyso-DGTS molecules bound to a rePON1. […] (2.377×10^3 M^−1; FIG. 4C). The values obtained for n were not affected by the temperature and were equal to ˜1 (Table 4). The thermodynamic parameters: enthalpy (ΔH), entropy (ΔS), and free energy (ΔG) were calculated to characterize the type of rePON1-lyso-DGTS interaction.

The test system of experiment [3] is rePON1. Kind of experiment: rePON1 lactonase activity (dihydrocoumarin assay) after incubation with lyso-DGTS. Conditions: for rePON1 lactonase activity: 2 h incubation, 37° C., 3.00 units without lyso-DGTS. The format is biochemical. The procedure:
as §1
10 μl from each solution were taken to a UV 96-well microplate containing 90 μl Tris-HCL buffer pH=8.4 with 1 mM CaCl2 (activity buffer) in each well. Then 100 μl dihydrocoumarin, 2 mM in the activity buffer was added (prepared from a stock of 100 mM dihydrocoumarin in DMSO). Dihydrocoumarine hydrolysis rate was measured at 270 nm, once in 25 seconds for 15 minutes, using SpectraMax M2 Reader. Non-enzymatic hydrolysis of dihydrocoumarin was subtracted from the total rate of hydrolysis. One unit of lactonase activity was equal to the hydrolysis of 1 μmol of dihydrocoumarin/min.
as §2

In experiment [4] the test system is J774A.1 macrophages. Kind of experiment: APOA1-mediated cholesterol efflux from macrophage cells. The format is cell-based, murine. The procedure:
J774A.1 cells were incubated for 4 h with RPMI buffer (media), APOA1 (10 μg) preincubated with DMSO or with lyso-DGTS (at final concentration of 10, 20, 50, and 100 μg/ml) for 2 h. Fluorescence was measured in media and cells at excitation/emission 482/515 nm. The cholesterol efflux was expressed as % efflux elicited by cells. Each experiment was repeated separately at least three times. *p<0.05, ***p<0.0001 relative to the control (APOA1 incubated with DMSO; n=3). Statistical analysis by one-way ANOVA and Graphpad prism 5 software.
APOA1 was incubated with lyso-DGTS at different concentrations (0, 10, 20, 50, and 100 μg/ml), and its ability to remove cholesterol from J774A.1 macrophages was measured by fluorometric assay (cell-based Cholesterol Efflux Fluorometric Assay Kit) and expressed as % of cholesterol efflux.

Experiment [5] concerns HDL isolated from Balb/c mice. Briefly: Pro-/anti-inflammatory properties of HDL isolated from HFD fed Balb/c mice, cell free assay. In kind it is in vivo. The following applies: HDL from HFD mice given lyso-DGTS 1.43 mg/ml, 3.5 μl a day, 28 days; fluorescence without HDL = 1.0; p<0.05. The procedure:
Balb/c mice fed with normal rodent diet (the “non” group; n=11) or HFD received treatment administered via subcutaneously implanted osmotic mini-pumps: 1) vehicle group injected with DDW+2% Tween 80 (n=9); 2) lyso-DGTS group injected with lyso-DGTS (1.43 mg/ml in DDW+2% Tween 80; n=1). At the end of the protocol, serum was obtained, HDL was isolated, and its pro-inflammatory/anti-inflammatory properties were determined using cell free assay (CFA). Fluorescence in the absence of HDL was normalized to 1.0. Values>1.0, after addition of the tested HDL, indicated pro-inflammatory activity; and values<1.0 indicated anti-inflammatory activity. (*p<0.05).
In order to examine the effect of lyso-DGTS on HDL-anti-inflammatory effects in-vivo, 3.5 μl lyso-DGTS a day were administered for 28 days, via a subcutaneously implanted osmotic mini-pump, to HFD fed mice. As described in Example 12, the mice were divided into three groups: 1) mice fed with regular diet for 12 weeks (the “non” group; […]); 2) mice fed with HFD for 12 weeks and injected with lyso-DGTS (1.43 mg/ml in DDW+2% Tween) from week 9 (the lyso-DGTS group; n=1); and 3) mice fed with HFD for 12 weeks and injected with DDW+2% Tween (the vehicle group; n=9).

With `CC/C=C\C/C=C\C/C=C\C/C=C\C/C=C\CCCC(=O)OCC(O)COCCC(C(=O)[O-])[N+](C)(C)C` (stereo not shown) [lyso-DGTS, lyso-diacylglyceryltrimethylhornmoserine], the “effect on rePON1 arylesterase activity” value in experiment [1] is “increases rePON1 lactonase and arylesterase activities in a dose and time dependent manner”. Further, the “Stern-Volmer quenching constant Ksv, rePON1” value in experiment [2] (25° C.) is on record as “(1.18±0.13)×10^+4 M^−1”; in experiment [2] (37° C.), “(0.93±0.03)×10^+4 M^−1”. The “Binding constant Ka, lyso-DGTS-rePON1” value in experiment [2] (298 K (25° C.)) is 10520 M⁻¹; in experiment [2] (310 K (37° C.)), 2377 M⁻¹. Further, the rePON1 lactonase activity in experiment [3] (1 μg/ml lyso-DGTS) was 4.05 units; in experiment [3] (5 μg/ml lyso-DGTS) it was 5.73 units; in experiment [3] (10 μg/ml lyso-DGTS) it was 8.10 units; in experiment [3] (50 μg/ml lyso-DGTS) it was 11.61 units; in experiment [3] (100 μg/ml lyso-DGTS), 12.7 units. The “rePON1 lactonase activity preserved after incubation for 48 h” value in experiment [3] (1 μg/ml lyso-DGTS) is 9%; in experiment [3] (5 μg/ml lyso-DGTS), 33%; in experiment [3] (10 μg/ml lyso-DGTS), 49%; in experiment [3] (50 μg/ml lyso-DGTS), 69%; in experiment [3] (100 μg/ml lyso-DGTS) it was 66%. Further, the “time for which rePON1 lactonase activity is stabilized and preserved” value in experiment [3] (in buffer solution, abolished after 48 h without lyso-DGTS) was “at least 48 h”. The APOA1-mediated cholesterol efflux in experiment [4] (APOA1+50 μg/ml lyso-DGTS, p<0.05) was around 25%; in experiment [4] (APOA1+100 μg/ml lyso-DGTS, p<0.0001) it was around 35%. In experiment [5], this compound displayed an HDL inflammatory value below 1.

These data come from patent publication US11591288B2, “Compositions and methods for treating atherosclerotic cardiovascular disease” (GAVISH-GALILEE BIO APPLICATIONS LTD., priority 2017, dated 2023).
